Data from patent publication US7868008B2, “Substituted isoindolones and their use as metabotropic glutamate receptor potentiators” (AstraZeneca AB, priority 2005, dated 2011).

Biological target: T1, human mGluR2 (Homo sapiens, UniProt Q14416)
T1 construct: chimeric mGluR2/CaR construct comprising the extracellular and transmembrane domains of human mGluR2 and the intracellular domain of the human calcium receptor, fused
Test: mGluR2 potentiator assays described herein (FLIPR calcium mobilization in HEK 293 cells expressing chimeric mGluR2/CaR, or [35S]-GTPγS binding with CHO cell membranes)
Format: cell-based
Conditions: assay not specified (FLIPR or [35S]-GTPγS); allosteric activator/potentiator activity at mGluR2
Source text: The pharmacological properties of the compounds of the invention can be analyzed using standard assays for functional activity. Examples of glutamate receptor assays are well known in the art as described in, for example, Aramori et al., 1992, Neuron, 8:757; Tanabe et al., 1992, Neuron, 8:169; Miller et al., 1995, J. Neuroscience, 15:6103; Balazs, et al., 1997, J. Neurochemistry, 1997, 69:151. The methodology described in these publications is incorporated herein by reference. Conveniently, the compounds of the invention can be studied by means of an assay that measures the mobilization of intracellular calcium, [Ca^2+]i in cells expressing mGluR2.
Fluorometric Imaging Plate Reader (FLIPR) analysis was used to detect allosteric activators of mGluR2 via calcium mobilization. A clonal HEK 293 cell line expressing a chimeric mGluR2/CaR construct comprising the extracellular and transmembrane domains of human mGluR2 and the intracellular domain of the human calcium receptor, fused to the promiscuous chimeric protein Gαqi5 was used. […] At 24-hours prior to analysis, the cells were trypsinized and plated in DMEM at 100,000 cells/well in black sided, clear-bottom, collagen I coated, 96-well plates. The plates were incubated under 5% CO2 at 37° C. overnight. Cells were loaded with 6 μM fluo-3 acetoxymethylester (Molecular Probes, Eugene Oreg.) for 60 minutes at room temperature. […]
FLIPR experiments were done using a laser setting of 0.8 W and a 0.4 second CCD camera shutter speed. […] An addition of test compound (0.01 μM to 30 μM in duplicate) was made after 10 seconds of baseline fluorescent readings were recorded on FLIPR. Fluorescent signals were then recorded for an additional 75 seconds at which point a second addition of DCG-IV (0.2 μM) was made and fluorescent signals were recorded for an additional 65 seconds. Fluorescent signals were measured as the peak height of the response within the sample period. Data was analyzed using Assay Explorer, and EC50 and Emax values (relative to maximum DCG-IV effect) were calculated using a four parameter logistic equation.
A [^35S]-GTPγS binding assay was used to functionally assay mGluR2 receptor activation. The allosteric activator activity of compounds at the human mGluR2 receptor were measured using a [^35S]-GTPγS binding assay with membranes prepared from CHO cells which stably express the human mGluR2. […] The GTPγS binding assay therefore provides a quantitative measure of receptor activation.
Membranes were prepared from CHO cells stably transfected with human mGluR2. […] The amount of radioactivity bound was determined by counting plates on the Packard TopCount. […]

T1 sequence (Q14416 19-819 limits assumed): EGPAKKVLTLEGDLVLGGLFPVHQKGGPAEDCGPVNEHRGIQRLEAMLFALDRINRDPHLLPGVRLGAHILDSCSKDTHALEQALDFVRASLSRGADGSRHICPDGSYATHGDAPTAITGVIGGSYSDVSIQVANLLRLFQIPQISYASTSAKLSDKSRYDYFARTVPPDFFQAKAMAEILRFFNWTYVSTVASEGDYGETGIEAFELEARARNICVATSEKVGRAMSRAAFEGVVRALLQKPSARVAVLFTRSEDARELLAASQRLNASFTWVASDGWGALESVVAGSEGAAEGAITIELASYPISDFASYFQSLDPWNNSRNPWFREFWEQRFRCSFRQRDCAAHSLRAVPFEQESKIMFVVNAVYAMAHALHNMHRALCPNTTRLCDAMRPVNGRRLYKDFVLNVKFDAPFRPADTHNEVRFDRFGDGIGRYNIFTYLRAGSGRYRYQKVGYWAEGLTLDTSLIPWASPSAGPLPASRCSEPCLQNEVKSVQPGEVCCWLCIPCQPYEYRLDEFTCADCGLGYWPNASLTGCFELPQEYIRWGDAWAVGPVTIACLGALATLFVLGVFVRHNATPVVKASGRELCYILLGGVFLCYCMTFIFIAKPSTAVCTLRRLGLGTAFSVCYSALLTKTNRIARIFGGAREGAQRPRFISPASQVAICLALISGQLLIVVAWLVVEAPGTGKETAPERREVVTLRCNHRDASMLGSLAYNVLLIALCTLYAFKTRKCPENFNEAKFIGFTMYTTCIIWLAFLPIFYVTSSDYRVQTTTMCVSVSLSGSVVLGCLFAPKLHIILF

EC50	SMILES
75 nM	O=C1c2c(Cl)cc(-c3noc(CN4CCC(F)CC4)n3)cc2CN1Cc1ccc(OC(F)(F)F)cc1 [Example 8.3, 7-Chloro-5-[5-(4-fluoro-piperidin-1-ylmethyl)-[1,2,4]oxadiazol-3-yl]-2-(4-trifluoromethoxy-benzyl)-2,3-dihydro-isoindol-1-one]
230 nM	Cc1cc(-c2nc(CN3CCN(C=O)CC3)no2)cc2c1C(=O)N(Cc1ccc(OC(F)(F)F)cc1)C2 [Example 10.4, 4-{5-[7-Methyl-1-oxo-2-(4-trifluoromethoxy-benzyl)-2,3-dihydro-1H-isoindol-5-yl]-[1,2,4]oxadiazol-3-ylmethyl}-piperazine-1-carbaldehyde]
84 nM	Cc1cc(CC2CCN(Cc3ccccc3F)CC2)cc2c1C(=O)N(CC1CC1)C2 [Example 11, 2-Cyclopropylmethyl-5-[1-(2-fluorobenzyl)-piperidin-4-ylmethyl]-7-methyl-2,3-dihydro-isoindol-1-one]
28 nM	Cc1cc(CC2CCN(Cc3ccc(F)cc3)CC2)cc2c1C(=O)N(CC1CCCCC1)C2 [Example 13.7, 2-Cyclohexylmethyl-5-[1-(4-fluoro-benzyl)-piperidin-4-ylmethyl]-7-methyl-2,3-dihydro-isoindol-1-one]
